From the NIST ThermoML archive (doi:10.1021/je020125e)

Conditions: 101.33 kPa, Liquid, Hot wire method

CC(C)C(C)(C)C [2,2,3-trimethylbutane]
Conditions | thermal conductivity [W/m/K] | thermal diffusivity [m2/s]
257.27 K | 0.1051 | –
257.53 K | 0.105 | –
257.81 K | 0.1049 | –
258.21 K | – | 7.28e-08
258.88 K | – | 7.27e-08
259.58 K | – | 7.26e-08
277.62 K | 0.1001 | –
277.9 K | 0.0999 | –
278.17 K | 0.0998 | –
278.57 K | – | 6.81e-08
279.26 K | – | 6.79e-08
279.93 K | – | 6.77e-08
296.29 K | 0.09516 | –
296.58 K | 0.09508 | –
296.87 K | 0.09497 | –
297.2 K | – | 6.29e-08
297.91 K | – | 6.32e-08
298.61 K | – | 6.3e-08
313.91 K | 0.09108 | –
314.21 K | 0.09098 | –
314.52 K | 0.09085 | –
314.85 K | – | 6e-08
315.57 K | – | 6e-08
316.3 K | – | 5.98e-08
331.18 K | 0.08718 | –
331.48 K | 0.08706 | –
331.79 K | 0.0869 | –
332.15 K | – | 5.72e-08
332.87 K | – | 5.7e-08
333.59 K | – | 5.66e-08

CC(C)CC(C)(C)C [2,2,4-trimethylpentane]
Conditions | thermal conductivity [W/m/K] | thermal diffusivity [m2/s]
259.11 K | 0.1042 | –
259.32 K | 0.1041 | –
259.52 K | 0.104 | –
259.89 K | – | 7.3e-08
260.43 K | – | 7.32e-08
260.92 K | – | 7.33e-08
277.52 K | 0.09971 | –
277.74 K | 0.09966 | –
277.93 K | 0.09958 | –
278.29 K | – | 6.86e-08
278.84 K | – | 6.88e-08
279.31 K | – | 6.87e-08
295.67 K | 0.09516 | –
295.9 K | 0.09509 | –
296.1 K | 0.09502 | –
296.41 K | – | 6.37e-08
296.96 K | – | 6.41e-08
297.45 K | – | 6.42e-08
313.79 K | 0.09108 | –
314.02 K | 0.091 | –
314.22 K | 0.09093 | –
314.56 K | – | 6.07e-08
315.1 K | – | 6.07e-08
315.57 K | – | 6.07e-08
327.69 K | 0.08786 | –
327.93 K | 0.0878 | –
328.14 K | 0.08771 | –
328.47 K | – | 5.82e-08
329.04 K | – | 5.83e-08
329.52 K | – | 5.81e-08

CCC(C)(C)C [2,2-dimethylbutane]
Conditions | thermal conductivity [W/m/K] | thermal diffusivity [m2/s]
257.48 K | 0.1055 | –
257.84 K | 0.1053 | –
258.3 K | 0.1051 | –
258.74 K | – | 7.54e-08
259.62 K | – | 7.49e-08
260.73 K | – | 7.46e-08
271.49 K | 0.1011 | –
271.84 K | 0.101 | –
272.32 K | 0.1008 | –
272.79 K | – | 7.16e-08
273.65 K | – | 7.14e-08
274.78 K | – | 7.08e-08
279.86 K | 0.09854 | –
280.24 K | 0.09842 | –
280.73 K | 0.09822 | –
281.17 K | – | 6.94e-08
282.06 K | – | 6.92e-08
283.23 K | – | 6.85e-08
297.98 K | 0.09321 | –
298.42 K | 0.09307 | –
298.91 K | 0.09289 | –
299.31 K | – | 6.48e-08
300.31 K | – | 6.46e-08
301.44 K | – | 6.41e-08
319.35 K | 0.08745 | –
319.75 K | 0.08729 | –
320.28 K | 0.08709 | –
320.72 K | – | 6.03e-08
321.62 K | – | 5.99e-08
322.83 K | – | 5.95e-08

CCCC(C)(C)C [2,2-dimethylpentane]
Conditions | thermal conductivity [W/m/K] | thermal diffusivity [m2/s]
256.16 K | 0.1094 | –
256.52 K | 0.1091 | –
256.84 K | 0.109 | –
257.01 K | – | 7.66e-08
257.9 K | – | 7.58e-08
258.7 K | – | 7.56e-08
275.45 K | 0.1041 | –
275.83 K | 0.1039 | –
276.13 K | 0.1037 | –
276.31 K | – | 7.15e-08
277.21 K | – | 7.06e-08
277.95 K | – | 7.03e-08
296.32 K | 0.09819 | –
296.69 K | 0.09803 | –
297.02 K | 0.09794 | –
297.15 K | – | 6.57e-08
298.03 K | – | 6.53e-08
298.82 K | – | 6.49e-08
317.22 K | 0.09288 | –
317.63 K | 0.09264 | –
317.95 K | 0.09251 | –
318.05 K | – | 6.1e-08
318.98 K | – | 6.05e-08
319.72 K | – | 6.03e-08
336.91 K | 0.08793 | –
337.31 K | 0.08776 | –
337.64 K | 0.0876 | –
337.72 K | – | 5.67e-08
338.63 K | – | 5.61e-08
339.39 K | – | 5.59e-08
